# Laboratory results from patent publication US20080318892A1, “METHODS AND FORMULATIONS FOR PROTECTING CELLS, AND FOR TREATING DISEASES AND CONDITIONS BY OPTIMIZING THE INTRACELLULAR CONCENTRATION OF NAD” (priority 2007, published 2008).
# B1: SIRT1 H363Y: dominant-negative form of SIRT1 (H363Y), retrovirally transduced (protein, UniProt Q96EB6 2-747, looked up, variant H363Y)
# NAD-dependent protein …: ADEAALALQPGGSPSAAGADREAASSPAGEPLRKRPRRDGPGLERSPGEPGGAAPEREVPAAARGCPGAAAAALWREAEAEAAAAGGEQEAQATAAAGEGDNGPGLQGPSREPPLADNLYDEDDDDEGEEEEEAAAAAIGYRDNLLFGDEIITNGFHSCESDEEDRASHASSSDWTPRPRIGPYTFVQQHLMIGTDPRTILKDLLPETIPPPELDDMTLWQIVINILSEPPKRKKRKDINTIEDAVKLLQECKKIIVLTGAGVSVSCGIPDFRSRDGIYARLAVDFPDLPDPQAMFDIEYFRKDPRPFFKFAKEIYPGQFQPSLCHKFIALSDKEGKLLRNYTQNIDTLEQVAGIQRIIQCYGSFATASCLICKYKVDCEAVRGDIFNQVVPRCPRCPADEPLAIMKPEIVFFGENLPEQFHRAMKYDKDEVDLLIVIGSSLKVRPVALIPSSIPHEVPQILINREPLPHLHFDVELLGDCDVIINELCHRLGGEYAKLCCNPVKLSEITEKPPRTQKELAYLSELPPTPLHVSEDSSSPERTSPPDSSVIVTLLDQAAKSNDDLDVSESKGCMEEKPQEVQTSRNVESIAEQMENPDLKNVGSSTGEKNERTSVAGTVRKCWPNRVAKEQISRRLDGNQYLFLPPNRYIFHGAEVYSDSEDDVLSSSSCGSNSDSGTCQSPSLEEPMEDESEIEEFYNGLEDEPDVPERAGGAGFGTDGDDQEAINEAISVKQEVTDMNYPSNKS
# B2: SIRT1: NAD+-dependent deacetylase; tested by retroviral overexpression of human SIRT1 cDNA in SMCs (protein, UniProt Q96EB6 2-747, looked up)
# NAD-dependent protein …: ADEAALALQPGGSPSAAGADREAASSPAGEPLRKRPRRDGPGLERSPGEPGGAAPEREVPAAARGCPGAAAAALWREAEAEAAAAGGEQEAQATAAAGEGDNGPGLQGPSREPPLADNLYDEDDDDEGEEEEEAAAAAIGYRDNLLFGDEIITNGFHSCESDEEDRASHASSSDWTPRPRIGPYTFVQQHLMIGTDPRTILKDLLPETIPPPELDDMTLWQIVINILSEPPKRKKRKDINTIEDAVKLLQECKKIIVLTGAGVSVSCGIPDFRSRDGIYARLAVDFPDLPDPQAMFDIEYFRKDPRPFFKFAKEIYPGQFQPSLCHKFIALSDKEGKLLRNYTQNIDTLEQVAGIQRIIQCHGSFATASCLICKYKVDCEAVRGDIFNQVVPRCPRCPADEPLAIMKPEIVFFGENLPEQFHRAMKYDKDEVDLLIVIGSSLKVRPVALIPSSIPHEVPQILINREPLPHLHFDVELLGDCDVIINELCHRLGGEYAKLCCNPVKLSEITEKPPRTQKELAYLSELPPTPLHVSEDSSSPERTSPPDSSVIVTLLDQAAKSNDDLDVSESKGCMEEKPQEVQTSRNVESIAEQMENPDLKNVGSSTGEKNERTSVAGTVRKCWPNRVAKEQISRRLDGNQYLFLPPNRYIFHGAEVYSDSEDDVLSSSSCGSNSDSGTCQSPSLEEPMEDESEIEEFYNGLEDEPDVPERAGGAGFGTDGDDQEAINEAISVKQEVTDMNYPSNKS
# Legend:
# [1] = tested on: HITC6 SMC's; experiment: Survival, morphology and h-caldesmon expression of PBEF-knockdown SMCs; format: cell-based, human; settings: for SMC morphology / SMC survival: retroviral hairpin siRNA
# Procedure: (§1) Western Blot Analyses were employed to assay marker expression. Expression of PBEF and SMC differentiation markers was assessed by Western blot analysis with chemiluminescence detection, as described (29). Equal amounts of protein were resolved on 12% (for PBEF and α-tubulin), 9% (for smoothelin A and smoothelin B) and 6% (for caldesmon and vinculin-metavinculin) SDS-polyacrylamide gels and transferred PVDF membranes (Immobilon, Millipore). PBEF was detected using a polyclonal rabbit antibody against human PBEF (1857, 1:5000, kindly provided by Amgen). Monoclonal antibodies were used to detect heavy (h)-caldesmon (clone hHCD, 1:1000, Sigma), smoothelin isoforms A and B (clone MAB3242, 1:500, Chemicon), vinculin-metavinculin (clone VIN-11-5, 1:2000, Sigma), and α-tubulin (clone B-5-1-2; 1:16000, Sigma).
# (§2) Knockdown of PBEF by RNA Interference was evaluated with a viral vector. PBEF knockdown was accomplished by infecting human SMC's with retrovirus containing sequences encoding hairpin siRNA fragments. Complementary oligodeoxynucleotides were synthesized, annealed, and inserted between the BamH1 and EcoR1 sites of the retroviral expression vector pSIREN-RetroQ. Three different targeting sequences were used, each consisting of 19 nucleotides starting at nucleotides 147, 384, and […] of the PBEF coding sequence (siRNA147 5′-GGAAGGTGAAATATGAGGA-3′; siRNA384 5′-ATGTTCTCTTCACGGTGGA-3′; siRNA1278 5′-AGGGCCGATTATCTTTACA-3′). Each sequence was separated by a 9-nucleotide noncomplementary spacer from the reverse complement of the same 19-nucleotide sequence. Blast search confirmed that only the PBEF gene was targeted. Control inserts contained the gene-specific 19-nucleotide sequence and hairpin loop sequence but not the antisense component. Infection of SMCs was performed as described above and cells were selected using 3 μg/ml puromycin for 48 hours.
# Microscopy and Image Analysis were used to measure cell robustness and function. Cell images were collected using a Zeiss Axiovert S100 microscope (Carl Zeiss Microimaging Inc.) equipped with Hoffman Modulation Contrast Plan objectives and TCT condenser (Modulation Optics Inc.), cooled QICAM 12-bit Mono Fast 1394 camera (QImaging Inc.) and Northern Eclipse image analysis software (Empix Imaging Inc.). Histology images were acquired with an Olympus BX50 microscope with a BX-FLA illuminator, UPlanF1 objective lenses (Olympus Optical Co. Ltd.), cooled Retiga EXi Mono Fast 1394 camera (QImaging Inc.) and Northern Eclipse image analysis software. Linear image processing was done using Photoshop CS (Adobe Systems Inc.).
# [2] = tested on: PBEF; experiment: Knockdown of PBEF by RNA interference: PBEF mRNA (real-time RT-PCR) and protein (Western blot); format: cell-based, human; settings: HITC6 SMCs, retroviral hairpin siRNA
# Procedure: as §1, §2
# Real-time RT-PCR was used to analyze nucleic acid evidence. RNA was harvested using RNeasy mini-column and reagents (Qiagen) and subjected to DNaseI treatment. Probe (5′-CAGTTGCTGATCCCA-3′) and flanking primers (5′-primer 5′-[…]-3′; 3′-primer 5′-[…]-3′) for Taqman real-time RT-PCR for PBEF were designed using Primer Express software (Applied Biosystems). Reactions were performed using an ABI-Prism 7900 Sequence Detection System (Applied Biosystems). Optimum signal was obtained with concentrations of 200 nM, 300 nM and 50 nM for the probe, 5′ primer, and 3′ primer, respectively. Standard curves were generated using RNA derived from human aortic SMCs, enabling correlation of the determined threshold cycle to transcript abundance. GAPDH transcript abundance was used as an endogenous RNA control (Assays on Demand Hs9999905, Applied Biosystems) to which PBEF transcript abundance was normalized.
# [3] = tested on: HDAC; experiment: Histone deacetylase (HDAC) assay in SMC lysates with [3H]-acetylated histone H4 peptide; format: biochemical, human
# Procedure: HITC6 SMC's were stably transduced with pQXCIP-PURO or pQXCIP-PBEF-PURO and HDAC activity determined in cell lysates (25 μg of protein), using [^3H]histone H4 peptide as the substrate. The reactions were quenched by acid hydrolysis and catalytically released [^3H]-acetate was extracted in ethyl acetate.
# Histone Deacetylase (HDAC) Assays were employed. Histone H4 peptide (Upstate) was labeled with [^3H]-acetyl Coenzyme A (ICN) using PCAF histone acetylase. Cell lysates were harvested using Passive Lysis Buffer (Promega) and 25 μg of protein was incubated at 37° C. for 6 hours with 50,000 cpm of [^3H]-acetyl histone and 1 mM PMSF in HDAC Assay Buffer (Upstate). Released [^3H]-acetate was extracted with ethyl acetate (31) and counted on a Beckman LS3801 scintillation counter.
# [4] = tested on: HITC6 SMCs; experiment: Replicative lifespan (cumulative population doublings) of HITC6 SMCs; format: cell-based, human
# Procedure: To quantify replication, cells were plated at 4500 cells/cm^2 and growth medium with 10% FBS was changed every two days until cells reached 90-95% confluence. Harvested cells were counted from triplicate plates and the number of population doublings was calculated based on: [log10(number of cells harvested)−log10(number of cells seeded)]/[…] (Fukuhara, 2005). Population growth curves were compared using both nonlinear regression and two-way analysis of variance.
# Cell Culture. Experiments were performed using primary human SMCs and the HITC6 clonal SMC line, both derived from segments of human internal thoracic artery (Li et al., 1999; Li et al., 2001). SMCs were maintained at 37° C. with 5% CO2 and cultured in Medium 199 (Invitrogen, Carlsbad, Calif., USA) supplemented with 25 mM HEPES, 10% FBS, 1% penicillin/streptomycin, and 1% L-glutamine. Phoenix cells (distributed by ATCC, Manassas, Va., USA) were maintained at 37° C. with 5% CO2 and cultured in Dulbecco's modified Eagle's medium (Invitrogen, Carlsbad, Calif., USA). To quantify replication, cells were seeded at a density of 4500 cells/cm2 and population doublings were calculated using the following formula: […].
# [5] = tested on: HITC6 SMCs; experiment: Senescence-associated beta-galactosidase activity / senescence-free survival; format: cell-based, human; settings: 37th subculture
# Procedure: Senescence-associated β-Galatosidase Activity Assay. SMCs on glass coverslips at approximately 70% confluence were fixed in 2% formaldehyde/0.2% glutaraldehyde in PBS for 3 minutes and incubated with X-gal-containing reaction mixture, as previously described (Dimri, 1995). Washed cells were stained with Hoechst 33258 (2.5 μg/ml) and the proportion of senescence-associated β-galactosidase (SA β-Gal)-positive cells quantified from 10 microscope fields of view (Olympus BX51, ×20 objective, approximately 1200 cells). Senescence-free survival was determined using Kaplan-Meier analysis of survival vs. replicative age.
# Senescence-associated Beta-galactosidase Activity. Senescence-associated beta-galactosidase (SA-β-gal) activity was determined as previously described (Dimri et al, 1995). Briefly, SMCs were fixed in PBS containing 2% formaldehyde/0.2% glutaraldehyde for 3 min at room temperature. Fixed cells were then incubated for 4-6 h at 37° C. with SA-β-gal stain solution containing 150 mM NaCl, 2 mM MgCl, 40 mM citrate, 5 mM potassium ferrocyanide, 5 mM potassium ferricyanide, and 1 mg/ml of 5-bromo-4-chloro-3-indolyl-β-D-galactopyranoside (X-gal) (Invitrogen, Carlsbad, Calif., USA), at pH 6.0. SMCs were counterstained with 2.5 μg/ml Hoechst 33258 to detect cell nuclei. The proportion of SA-β-gal activity positive cells was quantified using light and fluorescence microscopy (Olympus BX51, Center Valley, Pa., USA).
# [6] = tested on: primary human vascular SMCs; experiment: Replicative lifespan (cumulative population doublings) of primary SMCs; format: cell-based; settings: SIRT1-overexpressing primary adult SMCs; p<0.01
molecule,measurement,setting,value
"siRNA1248: retrovirally expressed hairpin siRNA to PBEF, 19 nt from nucleotide 1248: 5'-AGGGCCGATTATCTTTACA-3' (hairpin with spacer and reverse complement)",h-caldesmon expression (Western blot),[1],reduced expression
same,SMC morphology,[1],"short, truncated morphology"
same,SMC survival,[1],survived poorly
same,PBEF mRNA (real-time RT-PCR) vs non-silencing RNA control,[2],significant decrease
same,PBEF protein,[2],significant suppression
trichostatin A,HDAC activity in both control and PBEF-overexpressing SMC's,[3]; 40 nM trichostatin A,substantially inhibited
"siRNA384: retrovirally expressed hairpin siRNA to PBEF, 19 nt from nucleotide 384: 5'-ATGTTCTCTTCACGGTGGA-3' (hairpin with spacer and reverse complement)",SMC morphology,[1],maintained an elongated morphology
same,PBEF mRNA (real-time RT-PCR) vs non-silencing RNA control,[2],did not manifest a reduction
same,PBEF protein,[2],did not manifest a reduction
"CC(NC(=O)c1ccccc1/N=C/c1c(O)ccc2ccccc12)c1ccccc1 (centres unmarked) [Sirtinol, sirtinol]",HDAC activity in PBEF-overexpressing SMC's,[3]; 50 μM sirtinol,significantly inhibited
same,HDAC activity in control SMC's,[3]; 50 μM sirtinol,more modest inhibition
"siRNA147: retrovirally expressed hairpin siRNA to PBEF, 19 nt from nucleotide 147: 5'-GGAAGGTGAAATATGAGGA-3' (hairpin with spacer and reverse complement)",SMC morphology,[1],"short, truncated morphology"
same,SMC survival,[1],survived poorly
same,PBEF mRNA (real-time RT-PCR) vs non-silencing RNA control,[2],significant decrease
same,PBEF protein,[2],significant suppression
B1,additional population doublings conferred by Nampt,"[4]; SIRT1 H363Y allele co-expressed with Nampt, p=0.003",0.3±0.3 population doublings
same,relative increase in senescence,[5]; dominant-negative SIRT1 co-expressed in PBEF-overexpressing SMCs,55±12%
same,relative increase in senescence,[5]; vector-infected SMCs expressing SIRT1 H363Y,15±10%
B2,increase in cumulative population doublings vs vector infected SMCs,[6],1.30±0.93 fold
same,increase in number of population doublings,"[4]; SIRT1-SMCs, clonal longer-lived human SMC line, p<0.05",1.17±0.03 fold
